Assay results: patent publication US10960037B2, “Method of treating neurological conditions with extract of Nerium species or Thevetia species” (PHOENIX BIOTECHNOLOGY, INC., priority 2010, dated 2021)

Test system: 5×-ARE-luciferase transcriptional reporter in primary corticostriatal neuronal co-cultures
Experiment: Nrf2 activation, 5×ARE-luciferase reporter assay
Type: cell-based, mouse
Conditions: 7 h and 24 h treatment
Procedure: Activation of the 5×-ARE luciferase reporter became stronger with an apparent left-shift in concentration-response for extended treatment over 24 h compared to 7 h. Fold-expression changes are expressed relative to the DMSO-carrier only condition (“0”) normalized to a co-transfected, constitutive Renilla luciferase control and set to a value of 1.
Primary corticostriatal neuronal co-cultures were prepared from E18 Sprague-Dawley rat or C57Bl/6 mouse embryos of either gender. For luciferase reporter assays, the Cignal Antioxidant Response Reporter kit (Qiagen) was used. The 5×ARE luciferase reporter mixture at 40:1 luciferase:Renilla plasmid was transfected into cortical and striatal neurons separately using an Amaxa electroporation device (Lonza). After electroporation, neurons were pooled and immediately plated into 96-well plates containing mature glial cultures. After culturing for 96 h, neuroprotective compositions were added at the indicated concentrations for 7 or 24 h prior to harvesting using Dual-Glo Luciferase Assay System protocol and reagents (Promega). Dual-wavelength luminescence was detected using a SpectraMax L microplate reader (Molecular Devices). Luciferase values were normalized to the internal Renilla control and fold-expression over the DMSO-only treatment control was calculated. At least 3 independent experiments were done using 4-6 biological replicates.

SMILES: CC1(C)CC[C@]2(C(=O)O)CC[C@]3(C)[C@H](C(=O)C=C4[C@@]5(C)C=C(C#N)C(=O)C(C)(C)[C@@H]5CC[C@]43C)[C@@H]2C1 [bardoxolone]
- induction of 5×-ARE-luciferase reporter: Concentration- and time-dependent induction
